Results reported in PubChem BioAssay AID256 (DTP/NCI, 2004).
Values joined by “and” are separate entries in the source; they are usually repeats but may differ in a detail not shown here. Equal values may be shown once. Inconclusive results and toxic doses are left out.

Tested on: CD2F1 mice, L1210 leukemia ip, survival T/C
Test: NCI In Vivo Anticancer Drug Screen. Data for tumor model L1210 Leukemia (intraperitoneal) in CD2F1 (CDF1) mice
Details: higher = longer survival
Summary of the method: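 Vehicle-treated tumor-bearing mice served as controls (C) for compound-treated mice (T). Reported figure is T divided by C.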

[1] = endpoint: mean survival time, dose: 25.0 mg/kg/injection, schedule: Q01DX009 (ip), vehicle: water
[2] = endpoint: mean survival time, dose: 100.0 mg/kg/injection, schedule: Q04DX003 (ip), vehicle: saline with Tween-80
[3] = endpoint: mean survival time, dose: 200.0 mg/kg/injection, schedule: Q04DX003 (ip), vehicle: saline with Tween-80
[4] = endpoint: mean survival time, dose: 100.0 mg/kg/injection, schedule: Q01DX009 (ip), vehicle: saline with Tween-80
[5] = endpoint: mean survival time, dose: 200.0 mg/kg/injection, schedule: Q01DX009 (ip), vehicle: saline with Tween-80
[6] = endpoint: mean survival time, dose: 400.0 mg/kg/injection, schedule: Q01DX009 (ip), vehicle: saline with Tween-80

For `O=C(NO)c1ccc(O)c(O)c1`, the T/C [1] was 115 % of control, the T/C (endpoint: mean survival time, dose: 164.71 mg/kg/injection, schedule: Q01DX009 (ip), vehicle: water) was 121 % of control and the T/C (endpoint: mean survival time, dose: 196.0 mg/kg/injection, schedule: Q01DX009 (ip), vehicle: water) was 152 % of control. The T/C (endpoint: mean survival time, dose: 200.0 mg/kg/injection, schedule: Q01DX009 (ip), vehicle: water) was 167 % of control, the T/C (endpoint: mean survival time, dose: 245.0 mg/kg/injection, schedule: Q01DX009 (ip), vehicle: water) was 168 % of control and the T/C (endpoint: mean survival time, dose: 307.0 mg/kg/injection, schedule: Q01DX009 (ip), vehicle: water) was 167 % of control. The T/C (endpoint: mean survival time, dose: 307.2 mg/kg/injection, schedule: Q01DX009 (ip), vehicle: water) was 176 % of control, the T/C (endpoint: mean survival time, dose: 336.14 mg/kg/injection, schedule: Q01DX009 (ip), vehicle: water) was 155 % of control and the T/C (endpoint: mean survival time, dose: 383.0 mg/kg/injection, schedule: Q01DX009 (ip), vehicle: water) was 185 % of control. For the same compound, the T/C (endpoint: mean survival time, dose: 384.0 mg/kg/injection, schedule: Q01DX009 (ip), vehicle: water) was 162 % of control, the T/C (endpoint: mean survival time, dose: 400.0 mg/kg/injection, schedule: Q01DX009 (ip), vehicle: water) was 167 % of control and the T/C (endpoint: mean survival time, dose: 480.0 mg/kg/injection, schedule: Q01DX009 (ip), vehicle: water) was 167 % of control and 206 % of control. For the same compound, the T/C (endpoint: mean survival time, dose: 480.2 mg/kg/injection, schedule: Q01DX009 (ip), vehicle: water) was 187 % of control, the T/C (endpoint: mean survival time, dose: 600.0 mg/kg/injection, schedule: Q01DX009 (ip), vehicle: water) was 154 % of control and 164 % of control and the T/C (endpoint: median survival time, dose: 18.75 mg/kg/injection, schedule: Q03HX024 (ip), vehicle: water) was 113 % of control. For the same compound, the T/C (endpoint: median survival time, dose: 22.5 mg/kg/injection, schedule: Q03HX024 (ip), vehicle: water) was 109 % of control, the T/C (endpoint: median survival time, dose: 37.5 mg/kg/injection, schedule: Q03HX024 (ip), vehicle: water) was 124 % of control and the T/C (endpoint: median survival time, dose: 45.0 mg/kg/injection, schedule: Q03HX024 (ip), vehicle: water) was 119 % of control. The T/C (endpoint: median survival time, dose: 50.0 mg/kg/injection, schedule: Q01DX009 (ip), vehicle: water) was 117 % of control, the T/C (endpoint: median survival time, dose: 100.0 mg/kg/injection, schedule: Q01DX009 (ip), vehicle: water) was 124 % of control and the T/C (endpoint: median survival time, dose: 120.0 mg/kg/injection, schedule: Q01DX009 (ip), vehicle: water) was 122 % of control. For the same compound, the T/C (endpoint: median survival time, dose: 180.0 mg/kg/injection, schedule: Q03HX024 (ip), vehicle: water) was 214 % of control, the T/C (endpoint: median survival time, dose: 225.0 mg/kg/injection, schedule: Q03HX024 (ip), vehicle: water) was 273 % of control and the T/C (endpoint: median survival time, dose: 240.0 mg/kg/injection, schedule: Q01DX009 (ip), vehicle: water) was 154 % of control. For the same compound, the T/C (endpoint: median survival time, dose: 268.0 mg/kg/injection, schedule: Q01DX009 (ip), vehicle: water) was 160 % of control, the T/C (endpoint: median survival time, dose: 270.0 mg/kg/injection, schedule: Q03HX024 (ip), vehicle: water) was 238 % of control and the T/C (endpoint: median survival time, dose: 400.0 mg/kg/injection, schedule: Q01DX009 (ip), vehicle: water) was 162 % of control and 163 % of control. For the same compound, the T/C (endpoint: median survival time, dose: 480.0 mg/kg/injection, schedule: Q01DX009 (ip), vehicle: water) was 178 % of control, the T/C (endpoint: median survival time, dose: 600.0 mg/kg/injection, schedule: Q01DX009 (ip), vehicle: water) was 95 % of control and the T/C (endpoint: median survival time, dose: 720.0 mg/kg/injection, schedule: Q01DX009 (ip), vehicle: water) was 170 % of control.

`CC1=C2C(=O)[C@H]3[C@@H](CC=C4C[C@@H](O)CC[C@@]43C)[C@@H]2CC[C@]12O[C@@H]1C[C@H](C)CN[C@H]1[C@H]2C` was tested, and the T/C (endpoint: mean survival time, dose: 12.5 mg/kg/injection, schedule: Q01DX009 (ip), vehicle: saline with Tween-80) was 100 % of control, the T/C (endpoint: mean survival time, dose: 25.0 mg/kg/injection, schedule: Q01DX009 (ip), vehicle: saline with Tween-80) was 93 % of control and the T/C (endpoint: mean survival time, dose: 50.0 mg/kg/injection, schedule: Q01DX009 (ip), vehicle: saline with Tween-80) was 91 % of control. For the same compound, the T/C (endpoint: mean survival time, dose: 200.0 mg/kg/injection, schedule: Q01DX001 (ip), vehicle: saline with Tween-80) was 91 % of control and the T/C (endpoint: mean survival time, dose: 400.0 mg/kg/injection, schedule: Q01DX001 (ip), vehicle: saline with Tween-80) was 88 % of control.

`Cc1c(N=NN(C)C)cc[n+]([O-])c1C` was tested, and the T/C (endpoint: mean survival time, dose: 11.0 mg/kg/injection, schedule: Q01DX009 (ip), vehicle: water) was 121 % of control, the T/C [1] was 157 % of control and the T/C (endpoint: mean survival time, dose: 37.5 mg/kg/injection, schedule: Q01DX009 (ip), vehicle: water) was 159 % of control.

With `CCCCCCCCCCCC[S+](C)C` the T/C (endpoint: mean survival time, dose: 10.0 mg/kg/injection, schedule: Q04DX003 (ip), vehicle: Klucel (hydroxypropylcellulose) (HPC)) was 107 % of control, the T/C (endpoint: mean survival time, dose: 20.0 mg/kg/injection, schedule: Q04DX003 (ip), vehicle: Klucel (hydroxypropylcellulose) (HPC)) was 103 % of control and the T/C (endpoint: mean survival time, dose: 40.0 mg/kg/injection, schedule: Q04DX003 (ip), vehicle: Klucel (hydroxypropylcellulose) (HPC)) was 98 % of control.

In the case of `CNC(=O)Nc1nnnc2ccccc12`, the T/C [2] is reported as 95 % of control.

With `COc1cc(/C=N/NC(=O)CN(C)C)cc(OC)c1N(CCCl)CCCl` the T/C (endpoint: mean survival time, dose: 50.0 mg/kg/injection, schedule: Q01DX009 (ip), vehicle: Klucel (hydroxypropylcellulose) (HPC)) was 122 % of control and the T/C (endpoint: mean survival time, dose: 100.0 mg/kg/injection, schedule: Q01DX009 (ip), vehicle: Klucel (hydroxypropylcellulose) (HPC)) was 113 % of control.

For `NC(=O)N1c2c(nc(N)[nH]c2=O)NCC1CNc1ccc(C(=O)NC(CCC(=O)O)C(=O)O)cc1` (stereo not drawn), the T/C (endpoint: mean survival time, dose: 100.0 mg/kg/injection, schedule: Q01DX001 (ip), vehicle: sodium bicarbonate) was 102 % of control, the T/C (endpoint: mean survival time, dose: 200.0 mg/kg/injection, schedule: Q01DX001 (ip), vehicle: sodium bicarbonate) was 97 % of control and the T/C (endpoint: mean survival time, dose: 400.0 mg/kg/injection, schedule: Q01DX001 (ip), vehicle: sodium bicarbonate) was 96 % of control.

In the case of `CCOC(=O)CCCC/C(C)=N\N=C(C(C)C)C(C)C`, the T/C (endpoint: mean survival time, dose: 75.0 mg/kg/injection, schedule: Q01DX001 (ip), vehicle: other) is reported as 103 % of control, the T/C (endpoint: mean survival time, dose: 150.0 mg/kg/injection, schedule: Q01DX001 (ip), vehicle: other) is reported as 97 % of control and the T/C (endpoint: mean survival time, dose: 300.0 mg/kg/injection, schedule: Q01DX001 (ip), vehicle: other) is reported as 89 % of control.

In the case of `CCCn1c2ccccc2c2ccccc21`, the T/C (endpoint: mean survival time, dose: 100.0 mg/kg/injection, schedule: Q04DX003 (ip), vehicle: Klucel (hydroxypropylcellulose) (HPC)) is reported as 91 % of control, the T/C (endpoint: mean survival time, dose: 200.0 mg/kg/injection, schedule: Q04DX003 (ip), vehicle: Klucel (hydroxypropylcellulose) (HPC)) is reported as 105 % of control and the T/C (endpoint: mean survival time, dose: 400.0 mg/kg/injection, schedule: Q04DX003 (ip), vehicle: Klucel (hydroxypropylcellulose) (HPC)) is reported as 96 % of control.

With `O=C(Nn1c(=O)c(=O)oc2ccccc21)C(F)(F)F` the T/C [2] was 96 % of control and the T/C [3] was 94 % of control.

In the case of `C1CCC2(CC1)SSC1(CCCCC1)S2`, the T/C (endpoint: mean survival time, dose: 100.0 mg/kg/injection, schedule: Q01DX009 (ip), vehicle: other) is reported as 108 % of control, the T/C (endpoint: mean survival time, dose: 200.0 mg/kg/injection, schedule: Q01DX009 (ip), vehicle: other) is reported as 100 % of control and the T/C (endpoint: mean survival time, dose: 400.0 mg/kg/injection, schedule: Q01DX009 (ip), vehicle: other) is reported as 110 % of control.

In the case of `CC(=O)C(N=Nc1cccc2c1C(=O)c1ccccc1C2=O)C(=O)Nc1ccccc1C` (stereo not drawn), the T/C (endpoint: mean survival time, dose: 75.0 mg/kg/injection, schedule: Q01DX001 (ip), vehicle: saline) is reported as 98 % of control, the T/C (endpoint: mean survival time, dose: 150.0 mg/kg/injection, schedule: Q01DX001 (ip), vehicle: saline) is reported as 93 % of control and the T/C (endpoint: mean survival time, dose: 300.0 mg/kg/injection, schedule: Q01DX001 (ip), vehicle: saline) is reported as 96 % of control.

`c1ccc2c(NCCCCCCNc3c4ccccc4nc4ccccc34)c3ccccc3nc2c1` was tested, and the T/C (endpoint: mean survival time, dose: 0.62 mg/kg/injection, schedule: Q01DX009 (ip), vehicle: Klucel (hydroxypropylcellulose) (HPC)) was 103 % of control, the T/C (endpoint: mean survival time, dose: 1.25 mg/kg/injection, schedule: Q01DX009 (ip), vehicle: Klucel (hydroxypropylcellulose) (HPC)) was 114 % of control and 123 % of control and 111 % of control and the T/C (endpoint: mean survival time, dose: 2.5 mg/kg/injection, schedule: Q01DX009 (ip), vehicle: Klucel (hydroxypropylcellulose) (HPC)) was 115 % of control and 109 % of control. For the same compound, the T/C (endpoint: mean survival time, dose: 5.0 mg/kg/injection, schedule: Q01DX009 (ip), vehicle: Klucel (hydroxypropylcellulose) (HPC)) was 123 % of control and 111 % of control, the T/C (endpoint: mean survival time, dose: 10.0 mg/kg/injection, schedule: Q01DX009 (ip), vehicle: Klucel (hydroxypropylcellulose) (HPC)) was 111 % of control and the T/C (endpoint: mean survival time, dose: 20.0 mg/kg/injection, schedule: Q01DX009 (ip), vehicle: Klucel (hydroxypropylcellulose) (HPC)) was 104 % of control.

In the case of `COc1ccc(C2C3CN(C4CCCCC4)C(=O)C3NN2C(C)=O)cc1` (stereo not drawn), the T/C [4] is reported as 91 % of control, the T/C [5] is reported as 89 % of control and the T/C [6] is reported as 89 % of control.

In the case of `Cc1ccc(C2(C(=O)O)CCCC2)cc1`, the T/C [4] is reported as 96 % of control, the T/C [2] is reported as 97 % of control and the T/C [5] is reported as 97 % of control. The T/C [3] was 98 % of control, the T/C [6] was 90 % of control and the T/C (endpoint: mean survival time, dose: 400.0 mg/kg/injection, schedule: Q04DX003 (ip), vehicle: saline with Tween-80) was 95 % of control.

In the case of `O=C(C[n+]1ccc2ccccc2c1)c1ccc2ccccc2c1`, the T/C (endpoint: mean survival time, dose: 12.5 mg/kg/injection, schedule: Q04DX003 (ip), vehicle: saline with Tween-80) is reported as 92 % of control and the T/C (endpoint: mean survival time, dose: 25.0 mg/kg/injection, schedule: Q04DX003 (ip), vehicle: saline with Tween-80) is reported as 86 % of control.
